Source: patent US20250049698A1, “BIOACTIVE SERUM FRACTIONS FROM FRESH ROSE FLOWERS AND METHODS FOR THEIR PREPARATION AND USES” (ISP INVESTMENTS LLC, priority 2021, published 2025)

Assay: DPPH free radical scavenging assay
Format: biochemical
Conditions: positive control; dilution from 5% (w/v) stock solution
Description: DPPH assay provides an easy and rapid way to evaluate potential antioxidants. A free radical is an atom or molecule that has one or more unpaired electrons. The evidence is that reactive species of oxygen (O2-, H2O2, and NO2+) play an important role in inflammation, neurodegenerative disorders, and cancer, etc. Antioxidants can react with the nitrogen centered radical DPPH (2,2-Diphenyl-1-Picrylhydrazyl) and convert it to the non-radical 2,2-Diphenyl-1-Picrylhydrazine. The changes in color (from deep violet to light yellow) were read at 517 nm after 60 min of reaction using a UV/VIS Spectrophotometer. DPPH free radical scavenging method offers the first approach for evaluating the antioxidant potential of a compound or extract. DPPH free radical scavenging activity was determined to assess antioxidant activities for test articles by following protocol. DPPH (Sigma-Aldrich, 300267, St. Louis, MO, USA) solution of 0.06 mM in absolute methanol was prepared. Test articles with different concentrations (20 μl) were mixed with 180 μl of DPPH solution to obtain a total of 200 μl per well in a 96-well plate. After 60 min incubation at room temperature in the dark, the absorbance was measured at 517 nm by using a microplate spectrophotometer Biotek Synergy 2 (Biotek Instruments Inc, Winooski, VT, USA). […] The ability to scavenge DPPH radicle was calculated as % inhibition. […]

## O=C1O[C@H]([C@@H](O)CO)C(O)=C1O [L-(+)-ascorbic acid (Vitamin C), L-(+)-ascorbic acid]
  DPPH free radical scavenging IC50: 0.01 % (v/v)
